From ChEMBL document CHEMBL1122367, “Synthesis and antihypertensive activity of a series of spiro[1,3,4,6,7,11b-hexahydro-2H-benzo[a]quinolizine-2,5'-oxazolidin-2'-one]s” (1983)
Active and inactive are the calls of the source. The calls are words filed in the database; no cut-off is given here.

Assays:
Rattus norvegicus [1] = assay: Percentage fall in systolic blood pressure in spontaneously hypertensive rats 3h after 50 mg/kg p.o. administration; Not significant.; format: functional, organism-based; set-up: dose 50 mg/kg; conditions: Artery, at 50 mg/kg
Rattus norvegicus [2] = assay: Antihypertensive activity as percentage fall in systolic blood pressure in spontaneously hypertensive rats 2 hr after 25 mg/kg po administration;NS means nonsignificant difference between treated and control group; format: functional, organism-based; set-up: dose 25 mg/kg; conditions: Artery, at 25 mg/kg
Rattus norvegicus [3] = assay: Antihypertensive activity as percentage fall in systolic blood pressure in spontaneously hypertensive rats 1 hr after 50 mg/kg po administration; format: functional, Artery
Rattus norvegicus [4] = assay: Antihypertensive activity as percentage fall in systolic blood pressure in spontaneously hypertensive rats 4 hr after 50 mg/kg po administration; format: functional, Artery
Rattus norvegicus [5] = assay: Antihypertensive activity as percentage fall in systolic blood pressure in spontaneously hypertensive rats 1 hr after 25 mg/kg po administration;NS means nonsignificant difference between treated and control group; format: functional, organism-based; set-up: dose 25 mg/kg; conditions: Artery, at 25 mg/kg
Rattus norvegicus [6] = assay: Antihypertensive activity as percentage fall in systolic blood pressure in spontaneously hypertensive rats 4 hr after 25 mg/kg po administration;NS means nonsignificant difference between treated and control group; format: functional, organism-based; set-up: dose 25 mg/kg; conditions: Artery, at 25 mg/kg
Rattus norvegicus [7] = assay: Percentage fall in systolic blood pressure in spontaneously hypertensive rats 2 hr after 50 mg/kg p.o. administration.; format: functional, Artery; conditions: route oral
Rattus norvegicus [8] = assay: Antihypertensive activity as percentage fall in systolic blood pressure in spontaneously hypertensive rats 3h after 25 mg/kg po administration; format: functional
Rattus norvegicus [9] = assay: Antihypertensive activity as percentage fall in systolic blood pressure in spontaneously hypertensive rats 1 hr after 0.31 mg/kg po administration; format: functional, Artery
Rattus norvegicus [10] = assay: Antihypertensive activity as percentage fall in systolic blood pressure in spontaneously hypertensive rats 2 hr after 1.25 mg/kg po administration
Rattus norvegicus [11] = assay: Antihypertensive activity as percentage fall in systolic blood pressure in spontaneously hypertensive rats 3h after 0.31 mg/kg po administration; format: functional, Artery
Rattus norvegicus [12] = assay: Antihypertensive activity as percentage fall in systolic blood pressure in spontaneously hypertensive rats 3h after 1.25 mg/kg po administration
Rattus norvegicus [13] = assay: Antihypertensive activity as percentage fall in systolic blood pressure in spontaneously hypertensive rats 4 hr after 0.31 mg/kg po administration; format: functional, Artery
Rattus norvegicus [14] = assay: Antihypertensive activity as percentage fall in systolic blood pressure in spontaneously hypertensive rats 2 hr after 0.31 mg/kg po administration; format: functional, Artery
Rattus norvegicus [15] = assay: Antihypertensive activity as percentage fall in systolic blood pressure in spontaneously hypertensive rats 1 hr after 1.25 mg/kg po administration
Rattus norvegicus [16] = assay: Antihypertensive activity as percentage fall in systolic blood pressure in spontaneously hypertensive rats 4 hr after 1.25 mg/kg po administration
Rattus norvegicus [17] = assay: Antihypertensive activity as percentage fall in systolic blood pressure in spontaneously hypertensive rats 2 hr after 12.5 mg/kg po administration;NS means nonsignificant difference between treated and control group; format: functional, organism-based; set-up: dose 12.5 mg/kg; conditions: Artery, at 12.5 mg/kg
Rattus norvegicus [18] = assay: Antihypertensive activity as percentage fall in systolic blood pressure in spontaneously hypertensive rats 3h after 12.5 mg/kg po administration;NS means nonsignificant difference between treated and control group; format: functional, organism-based; set-up: dose 12.5 mg/kg; conditions: Artery, at 12.5 mg/kg
Rattus norvegicus [19] = assay: Antihypertensive activity as percentage fall in systolic blood pressure in spontaneously hypertensive rats 2 hr after 25 mg/kg po administration; format: functional, Artery
Rattus norvegicus [20] = assay: Antihypertensive activity as percentage fall in systolic blood pressure in spontaneously hypertensive rats 4 hr after 25 mg/kg po administration; format: functional, Artery
Rattus norvegicus [21] = assay: Antihypertensive activity as percentage fall in systolic blood pressure in spontaneously hypertensive rats 4 hr after 12.5 mg/kg po administration;NS means nonsignificant difference between treated and control group; format: functional, organism-based; set-up: dose 12.5 mg/kg; conditions: Artery, at 12.5 mg/kg
Rattus norvegicus [22] = assay: Antihypertensive activity as percentage fall in systolic blood pressure in spontaneously hypertensive rats 1 hr after 12.5 mg/kg po administration;NS means nonsignificant difference between treated and control group; format: functional, organism-based; set-up: dose 12.5 mg/kg; conditions: Artery, at 12.5 mg/kg
Rattus norvegicus [23] = assay: Antihypertensive activity as percentage fall in systolic blood pressure in spontaneously hypertensive rats 1 hr after 25 mg/kg po administration; format: functional, Artery

In the case of CCN1C[C@]2(CCN3CCc4cc(OC)c(OC)cc4[C@@H]3C2)OC1=O, the Fall (Rattus norvegicus [1]) is reported as “Not significant”, the Fall (Rattus norvegicus [2]) is reported as “Not significant” and the Fall (Rattus norvegicus [3]) is reported as 43%. The Fall (Rattus norvegicus [4]) was 18%, the Fall (Rattus norvegicus [5]) was “Not significant” and the Fall (Rattus norvegicus [6]) was “Not significant”. The Fall (Rattus norvegicus [7]) was 30% and the Fall (Rattus norvegicus [8]; Artery, at 25 mg/kg) was “Not significant”.
COc1cc2nc(N3CCN(C(=O)c4ccco4)CC3)nc(N)c2cc1OC [PRAZOSIN] gave a Fall (Rattus norvegicus [9]) of 19%, a Fall (Rattus norvegicus [10]) of 46% and a Fall (Rattus norvegicus [11]) of 21%. It also gave a Fall (Rattus norvegicus [12]) of 36%, a Fall (Rattus norvegicus [13]) of 26% and a Fall (Rattus norvegicus [14]) of 31%. For the same compound, the Fall (Rattus norvegicus [15]) was 26% and the Fall (Rattus norvegicus [16]) was 31%.
With O=C(NC1CCN(CCc2c[nH]c3ccccc23)CC1)c1ccccc1 [INDORAMIN] the Fall (Rattus norvegicus [17]) was “inactive”, the Fall (Rattus norvegicus [18]) was “inactive” and the Fall (Rattus norvegicus [19]) was 28%. For the same compound, the Fall (Rattus norvegicus [20]) was 30%, the Fall (Rattus norvegicus [21]) was “inactive” and the Fall (Rattus norvegicus [22]) was “inactive”. The Fall (Rattus norvegicus [23]) was 27% and the Fall (Rattus norvegicus [8]) was 34%.
